Results published in the supplement of paper PMC10307832.

Assays:
Test in all cases: relative viability (nuclei count vs DMSO), 5 days (fraction); higher = more cells survive
[1] = compound: C1CC2=C(C1)C=C(C=C2)OC3=NC(=C4C(=N3)N(C=N4)CC5=CC=C(C=C5)C6=CC=CC=C6)N[C@@H](CC7=CC=CC=C7)CO [QS11] + COc1cc2c(Oc3ccc(NC(=O)C4(C(=O)Nc5ccc(F)cc5)CC4)cc3F)ccnc2cc1OCCCN1CCOCC1 [Foretinib] (partner 0.25 µM)
Outline: (§1)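 For relative viability, nuclei counts in treated wells were divided by those in vehicle wells. Lung cancer cell lines had been pin-tool dosed in 1536-well plates the day after seeding and cultured for 5 days, then fixed and stained in one step (final 0.05% Triton X-100, 1% formaldehyde, 1 ug/ml Hoechst) and imaged at 4×. Doses were one drug alone or a fixed anchor-drug dose plus five library-drug doses (not always all listed) in √10 steps, and values are duplicate-plate medians.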

[2] = compound: CC1=C(C=C(C=C1)NC(=O)C2=CC(=CC=C2)C(C)(C)C#N)NC3=CC4=C(C=C3)N=CN(C4=O)C [AZ628] + Cc1cc(Nc2cc(N3CCN(C)CC3)nc(Sc3ccc(NC(=O)C4CC4)cc3)n2)n[nH]1 [Tozasertib] (partner 0.1 µM)
Outline: as §1

[3] = compound: CC1=C(C=C(C=C1)NC(=O)C2=CC(=CC=C2)C(C)(C)C#N)NC3=CC4=C(C=C3)N=CN(C4=O)C [AZ628] + Nc1ncn([C@H]2C[C@H](O)[C@@H](CO)O2)c(=O)n1 [Decitabine] (partner 2 µM)
Outline: as §1

[4] = compound: C1CC2=C(C1)C=C(C=C2)OC3=NC(=C4C(=N3)N(C=N4)CC5=CC=C(C=C5)C6=CC=CC=C6)N[C@@H](CC7=CC=CC=C7)CO [QS11] + CS(=O)(=O)CCNCc1ccc(-c2ccc3ncnc(Nc4ccc(OCc5cccc(F)c5)c(Cl)c4)c3c2)o1 [Lapatinib] (partner 2 µM)
Outline: as §1

| Cell Line | relative viability ([1]; first compound 0.08 µM) | relative viability ([1]; first compound 0.253 µM) | relative viability ([1]; first compound 0.8 µM) | relative viability ([1]; first compound 2.53 µM) | relative viability ([1]; first compound 8 µM) | relative viability ([2]; first compound 0.08 µM) | relative viability ([2]; first compound 0.253 µM) | relative viability ([2]; first compound 0.8 µM) | relative viability ([2]; first compound 2.53 µM) | relative viability ([2]; first compound 8 µM) | relative viability ([3]; first compound 0.08 µM) | relative viability ([3]; first compound 0.253 µM) | relative viability ([3]; first compound 0.8 µM) | relative viability ([3]; first compound 2.53 µM) | relative viability ([3]; first compound 8 µM) | relative viability ([4]; first compound 0.08 µM) | relative viability ([4]; first compound 0.253 µM) | relative viability ([4]; first compound 0.8 µM) | relative viability ([4]; first compound 2.53 µM) | relative viability ([4]; first compound 8 µM) |
| --- | --- | --- | --- | --- | --- | --- | --- | --- | --- | --- | --- | --- | --- | --- | --- | --- | --- | --- | --- | --- |
| NCI-H2009 | 1.24 | 1.24 | 1.09 | 0.98 | 1.11 | 0.667 | 0.571 | 0.599 | 0.569 | 0.298 | 0.404 | 0.36 | 0.313 | 0.32 | 0.291 | 0.983 | 0.884 | 0.634 | 0.855 | 0.728 |
| NCI-H1993 | 0.737 | 0.636 | 0.696 | 0.787 | 0.628 | 0.613 | 0.617 | 0.591 | 0.602 | 0.555 | 0.587 | 0.518 | 0.639 | 0.463 | 0.55 | 0.823 | 0.962 | 0.601 | 0.751 | 0.882 |
| COR-L23 | 0.976 | 1.03 | 0.716 | 0.802 | 0.735 | 0.186 | 0.15 | 0.157 | 0.146 | 0.12 | 0.471 | 0.43 | 0.349 | 0.453 | 0.27 | 1.1 | 1.08 | 0.68 | 0.582 | 0.849 |
| HOP-62 | 1.11 | 1.33 | 0.766 | 0.742 | 0.708 | 0.396 | 0.38 | 0.362 | 0.358 | 0.326 | 0.235 | 0.265 | 0.236 | 0.249 | 0.214 | 0.95 | 1.18 | 0.863 | 0.892 | 0.983 |
| NCI-H1437 | 1.31 | 1.23 | 0.973 | 1.17 | 1.12 | 0.402 | 0.408 | 0.428 | 0.418 | 0.375 | 0.606 | 0.548 | 0.531 | 0.613 | 0.659 | 0.832 | 0.846 | 0.581 | 0.704 | 0.598 |
| HCC-366 | 0.985 | 0.962 |  | 0.895 | 0.147 | 0.0912 | 0.0518 | 0.0747 | 0.0418 | 0.0451 | 0.345 | 0.313 | 0.269 | 0.292 | 0.182 | 0.97 | 0.992 |  | 0.67 | 0.246 |
| NCI-H1755 | 0.962 | 0.841 | 0.566 | 0.732 | 0.683 | 0.595 | 0.52 | 0.532 | 0.525 | 0.493 | 0.763 | 0.691 | 0.718 | 0.73 | 0.676 | 1.12 | 1.02 | 0.608 | 0.953 | 0.833 |
| NCI-H3122 | 0.979 | 1.08 |  | 1.05 | 0.749 | 0.392 | 0.339 | 0.345 | 0.254 | 0.189 | 0.307 | 0.21 | 0.221 | 0.239 | 0.161 | 1.03 | 1.14 | 0.71 | 1.16 | 0.824 |
| SW 1573 | 0.862 | 0.926 | 1.02 | 0.853 | 1.07 | 0.203 | 0.186 | 0.2 | 0.135 | 0.122 | 0.503 | 0.445 | 0.435 | 0.408 | 0.374 | 1.02 | 1.14 | 1.1 | 1.05 | 1.2 |
| NCI-H2085 | 1.01 | 0.886 | 0.911 | 1.02 | 1 | 0.754 | 0.899 | 0.935 | 0.743 | 0.382 | 0.534 | 0.563 | 0.569 | 0.575 | 0.609 | 0.714 | 0.716 | 0.713 | 0.861 | 0.778 |
| NCI-H727 | 1.2 | 0.888 | 0.829 | 1.06 | 0.869 | 0.551 | 0.316 | 0.32 | 0.404 | 0.274 | 0.918 |  |  | 0.644 | 0.345 | 1 | 0.714 | 0.892 | 0.665 | 0.639 |
| NCI-H2405 | 1 | 0.986 | 1 | 1.08 | 1.16 | 0.5 | 0.637 | 0.539 | 0.529 | 0.457 | 0.552 | 0.53 | 0.488 | 0.495 | 0.408 | 0.951 | 1.02 | 1.02 | 1.29 | 1.07 |
| NCI-H1666 | 0.908 | 1.05 | 0.653 | 0.85 | 0.582 | 0.605 | 0.567 | 0.565 | 0.551 | 0.479 | 0.744 | 0.691 | 0.625 | 0.62 | 0.657 | 0.607 | 0.398 | 0.542 | 0.578 | 0.42 |
| BEN | 0.47 | 0.616 | 0.814 | 0.691 | 0.701 | 0.511 | 0.498 | 0.444 | 0.471 | 0.383 | 0.758 | 0.637 | 0.651 | 0.668 | 0.735 | 0.555 | 0.89 | 0.864 | 0.781 | 1.19 |
| NCI-H1650 | 1 | 1.25 | 0.799 | 1.14 | 1.19 | 0.469 | 0.494 | 0.337 | 0.368 | 0.206 | 0.586 | 0.485 | 0.429 | 0.382 | 0.615 | 0.746 | 0.643 | 0.673 | 0.731 | 0.708 |
| HARA | 0.841 | 0.933 |  | 0.944 | 1.2 | 0.144 | 0.122 | 0.111 | 0.0923 | 0.0666 | 0.414 | 0.441 | 0.461 | 0.448 | 0.289 | 0.675 | 0.643 |  | 0.708 | 0.751 |
